Results on 2 molecules are retold here after paper PMC13395416 (PLOS Pathogens, 2026).

Ends that are not written are not given here. * marks the point of attachment. Biotin = O=C1N[C@H]2[C@H](CS[C@H]2CCCCC(=O)*)N1

What is called Kd is the free concentration of one partner at which half of the binding sites on the other are occupied at equilibrium, for simple one-to-one binding. A higher Kd goes with a looser complex.

The target of one assay is T1, SteC1-457 (Salmonella enterica, UniProt D0ZIB5).
T1 construct: gene steC
T1 sequence (D0ZIB5 whole entry): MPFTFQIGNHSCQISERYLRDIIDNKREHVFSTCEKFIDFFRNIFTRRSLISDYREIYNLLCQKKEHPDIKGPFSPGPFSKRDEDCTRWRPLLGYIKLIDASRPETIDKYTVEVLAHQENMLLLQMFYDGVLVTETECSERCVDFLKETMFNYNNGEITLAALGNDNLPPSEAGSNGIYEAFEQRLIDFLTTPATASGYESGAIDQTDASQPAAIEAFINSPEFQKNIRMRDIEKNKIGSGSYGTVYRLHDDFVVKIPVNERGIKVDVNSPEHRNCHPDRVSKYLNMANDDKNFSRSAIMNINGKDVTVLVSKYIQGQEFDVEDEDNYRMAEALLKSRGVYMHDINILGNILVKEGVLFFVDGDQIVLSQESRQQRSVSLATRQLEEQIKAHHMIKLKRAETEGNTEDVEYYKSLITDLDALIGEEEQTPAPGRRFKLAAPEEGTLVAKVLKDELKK
Particulars: 5 μM MYL12A, 100 μM ATP with 20 kBq [γ-32P]ATP, 100 nM kinase, 10 mM MgCl2, pH 7.5, 30 °C.

The target in assay [1] is SteC_(210-429) WT, minimal active kinase domain (Salmonella Typhimurium strain 14028s, UniProt D0ZIB5 210-429). The experiment in a line: BLI. Particulars: both partners purified.
Sequence of SteC_(210-429) WT, minimal active kinase domain (D0ZIB5 210-429): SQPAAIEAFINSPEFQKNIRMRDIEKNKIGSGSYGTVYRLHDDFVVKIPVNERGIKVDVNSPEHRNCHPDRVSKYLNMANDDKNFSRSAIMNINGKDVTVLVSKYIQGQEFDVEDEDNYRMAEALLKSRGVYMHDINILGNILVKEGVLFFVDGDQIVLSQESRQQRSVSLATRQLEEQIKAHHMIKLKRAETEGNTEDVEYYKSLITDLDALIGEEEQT

On to `Nc1ncnc2c1ncn2[C@@H]1O[C@H](COP(=O)(O)OP(=O)(O)OP(=O)(O)O)[C@@H](O)[C@H]1O` [ATP], for which, at SteC1-457, the “radioactive kinase assay, SDS-PAGE autoradiography” value is given as “SteC1-457 mediated phosphorylation of MYL12A”.

As for Biotin-KGPPSSVPKSRHLTIKLTPAHSRK (peptide, UniProt O95466 190-213, looked up) [N-terminally biotinylated FMNL1 peptide (K190-K213)], in assay [1], binding was characterised by a dissociation constant (Kd) of 7.9 µM.
